Data published in US20180153995A1, “USE OF ANTIMICROBIAL POLYMERS FOR RE-SENSITIZATION OF MICROORGANISMS UPON EMERGENCE OF RESISTANCE TO ANTI-MICROBIAL AGENTS” (Technion Research & Development Foundation Limited, priority 2008, published 2018).
Where two headings read alike, the source gives them in different places.

Key:
[1] = tested on: E. coli 14384; test: Antibiotic MIC by microdilution with or without sub-MIC polymer; assay type: cell-based, Escherichia coli
Procedure, shortened: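 Microdilution MICs used 10^5 bacteria per ml and 2-fold serial dilutions of antibiotic in medium, alone or combined with […]. Plates stood 24 hours at 37° C before turbidity reading at 620 nm.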

[2] = tested on: MRSA 15903; test: microbe, parasite or virus in culture; assay type: cell-based, Staphylococcus aureus
Procedure, shortened: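 Two-agent combinations tested against MRSA 15903; FIC index = A/MICA + B/MICB, using MICs in combination versus alone. Below 0.5 read as clear re-sensitizing, 0.5–4 marginal or null, above 4 antagonism.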

[3] = tested on: S. aureus 15819; test: Antibiotic MIC by microdilution with or without sub-MIC polymer; assay type: cell-based, Staphylococcus aureus; settings: S. aureus 15819
[4] = tested on: E. coli 14182; test: as above; assay type: cell-based, Escherichia coli
[5] = tested on: S. aureus 43300; test: as above; assay type: cell-based, Staphylococcus aureus
[6] = tested on: E. coli 16329; assay type: cell-based, Escherichia coli
Procedure, shortened: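 Bacterial suspensions (100 μl) were added to 100 μl of culture medium carrying 2-fold serially diluted antibiotic together with a fraction of the polymer's MIC, or to plain medium as control. Plates were incubated 24 hours at 37° C, and proliferation was read at 620 nm against calibration standards. Starting inoculum was 10^5 bacteria per ml.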

[7] = +¼ MIC (1.6 μM) C12(5-ene)KKNC12KNH2
[8] = +⅓ MIC (2.1 μM) C12(5-ene)KKNC12KNH2

Compound: CC1(C)S[C@@H]2[C@H](NC(=O)Cc3ccccc3)C(=O)N2[C@H]1C(=O)O [Penicillin G, penicillin G]
- Antibiotic MIC [1]: 512 µg/mL
- Antibiotic MIC ([1]; E. coli 14384, +½ MIC C12K(NC8K)5NH2): >512 µg/mL
- Antibiotic MIC, None ([1]; E. coli 14384, antibiotic alone (Table 15)): >512 µg/mL
- Antibiotic MIC ([1]; E. coli 14384, no polymer (None), Table 9): 512 µg/mL
- Antibiotic MIC ([1]; E. coli 14384, no polymer (None), Table 14): >512 µg/mL
- Antibiotic MIC in presence of C12K(NC8K)7NH2 (SEQ ID NO: 4), +¼ MIC ([1]; E. coli 14384, polymer at ¼ of its MIC): >512 µg/mL
- Antibiotic MIC in presence of C12K(NC8K)7NH2 (SEQ ID NO: 4), +½ MIC ([1]; E. coli 14384, polymer at ½ of its MIC): >512 µg/mL
- Antibiotic MIC in presence of C12K(NC8K)7NH2 (SEQ ID NO: 4), +⅓ MIC ([1]; E. coli 14384, polymer at ⅓ of its MIC): >512 µg/mL
- MIC ([2]; MRSA 15903, +¼ polymer MIC (1.6 μM) NC12(KNC12K)2NH2): 8 µg/mL
- MIC ([2]; MRSA 15903, +½ polymer MIC (3.1 μM) NC12(KNC12K)2NH2): 1 µg/mL
- MIC ([2]; MRSA 15903, +⅓ polymer MIC (2.1 μM) NC12(KNC12K)2NH2): 2 µg/mL
- MIC ([2]; MRSA 15903, antibiotic alone): 64 µg/mL
- MIC, Alone ([2]; MRSA 15903, antibiotic alone (Table 22)): 64 µg/mL
- MIC, ¼ + MIC OAK ([2]; MRSA 15903, with C12K(KNC10K)3NH2 (SEQ ID NO: 10) at ¼ of its MIC): 64 µg/mL
- MIC, ½ + MIC OAK ([2]; MRSA 15903, with C12K(KNC10K)3NH2 (SEQ ID NO: 10) at ½ of its MIC): 4 to 16 µg/mL
- MIC, ⅓ + MIC OAK ([2]; MRSA 15903, with C12K(KNC10K)3NH2 (SEQ ID NO: 10) at ⅓ of its MIC): 64 µg/mL
- MIC ([2]; S. aureus CI-15903, +polymer (¼ MIC) C12(5-ene)KKNC12KNH2): 32 µg/mL
- MIC ([2]; S. aureus CI-15903, +polymer (½ MIC) C12(5-ene)KKNC12KNH2): 0.25 µg/mL
- MIC ([2]; S. aureus CI-15903, +polymer (⅓ MIC) C12(5-ene)KKNC12KNH2): 4 µg/mL
- MIC ([2]; S. aureus CI-15903, alone): 64 µg/mL
- Antibiotic MIC [3, 7]: 8 to 12 µg/mL
- Antibiotic MIC ([3]; +¼ MIC (1.6 μM) C12K(KNC12K)3NH2): 4 µg/mL
- Antibiotic MIC ([3]; +¼ MIC (1.6 μM) C12KKNC12KNH2): 8 µg/mL
- Antibiotic MIC ([3]; +½ MIC (3.12 μM) C12(5-ene)KKNC12KNH2): 4 µg/mL
- Antibiotic MIC ([3]; +½ MIC (3.12 μM) C12K(KNC12K)3NH2): 0.5 µg/mL
- Antibiotic MIC ([3]; +½ MIC (3.12 μM) C12KKNC12KNH2): 2 µg/mL
- Antibiotic MIC [3, 8]: 8 µg/mL
- Antibiotic MIC ([3]; +⅓ MIC (2.1 μM) C12K(KNC12K)3NH2): 2 µg/mL
- Antibiotic MIC ([3]; +⅓ MIC (2.1 μM) C12KKNC12KNH2): 4 µg/mL
- Antibiotic MIC ([3]; no polymer (None), Table 8): 16 µg/mL
- Antibiotic MIC ([3]; no polymer (None), Table 11): 16 µg/mL
- Antibiotic MIC ([3]; no polymer (None), Table 13): 16 µg/mL
- Antibiotic MIC ([4]; +½ MIC C12K(NC8K)5NH2): >512 µg/mL
- Antibiotic MIC, None ([4]; antibiotic alone (Table 15)): >512 µg/mL
- Antibiotic MIC ([4]; no polymer (None), Table 14): >512 µg/mL
- Antibiotic MIC in presence of C12K(NC8K)7NH2 (SEQ ID NO: 4), +¼ MIC ([4]; polymer at ¼ of its MIC): >512 µg/mL
- Antibiotic MIC in presence of C12K(NC8K)7NH2 (SEQ ID NO: 4), +½ MIC ([4]; polymer at ½ of its MIC): >512 µg/mL
- Antibiotic MIC in presence of C12K(NC8K)7NH2 (SEQ ID NO: 4), +⅓ MIC ([4]; polymer at ⅓ of its MIC): >512 µg/mL
- Antibiotic MIC [5, 7]: 1 µg/mL
- Antibiotic MIC ([5]; +¼ MIC (1.6 μM) C12K(KNC12K)2NH2): 8 µg/mL
- Antibiotic MIC ([5]; +¼ MIC (1.6 μM) C12KKNC12KNH2): 4 µg/mL
- Antibiotic MIC ([5]; +¼ MIC (1.6 μM) C16(9-ene)KKNC12KNH2): 2 µg/mL
- Antibiotic MIC ([5]; +½ MIC (3.12 μM) C12K(KNC12K)2NH2): 4 µg/mL
- Antibiotic MIC ([5]; +½ MIC (3.12 μM) C12KKNC12KNH2): 1 µg/mL
- Antibiotic MIC ([5]; +½ MIC (3.12 μM) C16(9-ene)KKNC12KNH2): 0.25 µg/mL
- Antibiotic MIC [5, 8]: 0.25 µg/mL
- Antibiotic MIC ([5]; +⅓ MIC (2.1 μM) C12K(KNC12K)2NH2): 8 µg/mL
- Antibiotic MIC ([5]; +⅓ MIC (2.1 μM) C12KKNC12KNH2): 2 to 4 µg/mL
- Antibiotic MIC ([5]; +⅓ MIC (2.1 μM) C16(9-ene)KKNC12KNH2): 1 to 2 µg/mL
- Antibiotic MIC [6]: 256 µg/mL
- Antibiotic MIC ([6]; E. coli 16329, no polymer (None), Table 10): 512 µg/mL
- Antibiotic MIC ([6]; E. coli U-16329, +¼ MIC C12K(NC8K)5NH2): 256 µg/mL
- Antibiotic MIC ([6]; E. coli U-16329, +½ MIC C12K(NC8K)5NH2): 256 µg/mL
- Antibiotic MIC ([6]; E. coli U-16329, +⅓ MIC C12K(NC8K)5NH2): 256 µg/mL
- Antibiotic MIC, None ([6]; E. coli U-16329, antibiotic alone (Table 15)): 256 µg/mL
- Antibiotic MIC ([6]; E. coli U-16329, no polymer (None), Table 14): 256 µg/mL
